US11998539B2, “Substituted aminoquinolones as DGKalpha inhibitors for immune activation” (Bayer Aktiengesellschaft, priority 2019, dated 2024)

Target: DGKα (Homo sapiens (Human), UniProt P23743)
Assay: Human DGKα kinase activity inhibition assay (ADP-Glo)
Assay type: biochemical
Conditions: recombinant full-length human DGKα, 55 μM ATP, 7 μM 1,2-dioleoyl-sn-glycerol, read-out: IC50 values of examples in in vitro human DGKa kinase activity inhibition assays
Outline: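 Recombinant full-length human DGKα (C-terminal FLAG, from insect cells) phosphorylated 1,2-dioleoyl-sn-glycerol presented in octyl-glucopyranoside micelles. ADP formed was quantified by ADP-Glo luminescence. Compounds were added from 100-fold DMSO stocks.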

DGKα, sequence (P23743 other isoform, or with tags, fused parts or gaps): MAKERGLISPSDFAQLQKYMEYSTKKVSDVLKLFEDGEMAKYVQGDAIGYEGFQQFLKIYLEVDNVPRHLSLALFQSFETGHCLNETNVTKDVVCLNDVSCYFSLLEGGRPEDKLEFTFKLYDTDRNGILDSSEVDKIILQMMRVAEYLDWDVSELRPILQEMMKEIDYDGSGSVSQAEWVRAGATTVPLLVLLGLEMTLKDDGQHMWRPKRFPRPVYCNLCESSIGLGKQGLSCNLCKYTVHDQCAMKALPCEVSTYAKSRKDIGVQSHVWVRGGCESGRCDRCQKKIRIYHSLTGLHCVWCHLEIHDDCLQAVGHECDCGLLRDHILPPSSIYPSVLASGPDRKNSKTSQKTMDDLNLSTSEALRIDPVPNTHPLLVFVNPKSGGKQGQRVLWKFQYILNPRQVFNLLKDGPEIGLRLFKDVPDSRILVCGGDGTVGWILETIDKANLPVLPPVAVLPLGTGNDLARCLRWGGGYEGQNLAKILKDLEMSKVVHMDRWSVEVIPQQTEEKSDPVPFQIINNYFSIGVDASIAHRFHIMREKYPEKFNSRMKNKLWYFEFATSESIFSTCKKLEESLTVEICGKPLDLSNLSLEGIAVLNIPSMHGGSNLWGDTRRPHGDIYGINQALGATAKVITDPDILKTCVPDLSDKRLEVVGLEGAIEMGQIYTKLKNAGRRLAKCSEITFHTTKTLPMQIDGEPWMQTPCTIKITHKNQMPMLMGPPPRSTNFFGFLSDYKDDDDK

| Compound | IC50 [µM] |
| --- | --- |
| Cn1c(=O)c(C(N)=O)c(N2CCC(c3nc4ccccc4o3)CC2)c2ccc(N3CCCC3=O)cc21 [Example 318, 4-[4-(1,3-benzoxazol-2-yl)piperidin-1-yl]-1-methyl-2-oxo-7-(2-oxopyrrolidin-1-yl)-1,2-dihydroquinoline-3-carboxamide] | 0.048 |
| Cc1ccc2oc(C3CCN(c4c(C(N)=O)c(=O)n(C)c5c(Cl)cccc45)CC3)nc2c1 [Example 319, 8-chloro-1-methyl-4-[4-(5-methyl-1,3-benzoxazol-2-yl)piperidin-1-yl]-2-oxo-1,2-dihydroquinoline-3-carboxamide] | 0.074 |
| Cn1c(=O)c(C#N)c(N2CCC(c3cnc4ccccc4n3)CC2)c2ccccc21 [Example 321, 1-methyl-2-oxo-4-[4-(quinoxalin-2-yl)piperidin-1-yl]-1,2-dihydroquinoline-3-carbonitrile] | 0.075 |
| Cn1c(=O)c(C#N)c(N2CCC(c3cc[nH]n3)CC2)c2ccccc21 [Example 322, 1-methyl-2-oxo-4-[4-(1H-pyrazol-3-yl)piperidin-1-yl]-1,2-dihydroquinoline-3-carbonitrile] | 0.239 |
| Cn1cc(C2CCN(c3c(C#N)c(=O)n(C)c4ccccc34)CC2)cn1 [Example 323, 1-methyl-4-[4-(1-methyl-1H-pyrazol-4-yl)piperidin-1-yl]-2-oxo-1,2-dihydroquinoline-3-carbonitrile] | 0.326 |
| COc1ccc(C2CCN(c3c(C#N)c(=O)n(C)c4ccccc34)CC2)cc1OC [Example 324, 4-[4-(3,4-dimethoxyphenyl)piperidin-1-yl]-1-methyl-2-oxo-1,2-dihydroquinoline-3-carbonitrile] | 0.014 |
| Cn1c(=O)c(C#N)c(N2CCC(c3cccc(Cl)c3)CC2)c2ccccc21 [Example 325, 4-[4-(3-chlorophenyl)piperidin-1-yl]-1-methyl-2-oxo-1,2-dihydroquinoline-3-carbonitrile] | 0.026 |
| Cc1ccc2oc([C@H]3CCN(c4c(C#N)c(=O)n(C)c5ccccc45)[C@@H](C)C3)nc2c1 [Example 326, 1-methyl-4-[(2S,4S)-2-methyl-4-(5-methyl-1,3-benzoxazol-2-yl)-1-piperidyl]-2-oxo-quinoline-3-carbonitrile] | 0.034 |
| Cn1c(=O)c(C#N)c(N2CCC(c3cccc(C#N)c3)CC2)c2ccccc21 [Example 327, 4-[4-(3-cyanophenyl)piperidin-1-yl]-1-methyl-2-oxo-1,2-dihydroquinoline-3-carbonitrile] | 0.085 |
| Cn1c(=O)c(C#N)c(N2CCC[C@H](c3ccccc3)CC2)c2cccc(F)c21 [Example 328, 8-fluoro-1-methyl-2-oxo-4-[(4S)-4-phenylazepan-1-yl]-1,2-dihydroquinoline-3-carbonitrile] | 0.144 |
| Cn1c(=O)c(C#N)c(N2CCC(c3ccc(C(N)=O)cc3)CC2)c2ccccc21 [Example 330, 4-[1-(3-cyano-1-methyl-2-oxo-1,2-dihydroquinolin-4-yl)piperidin-4-yl]benzamide] | 0.217 |
| COc1ccccc1C1(O)CCN(c2c(C#N)c(=O)n(C)c3ccccc23)CC1 [Example 331, 4-[4-hydroxy-4-(2-methoxyphenyl)piperidin-1-yl]-1-methyl-2-oxo-1,2-dihydroquinoline-3-carbonitrile] | 0.861 |
| CCn1c(=O)c(C#N)c(N2CCC(c3nc4ccccc4o3)CC2)c2ccccc21 [Example 332, 4-[4-(1,3-benzoxazol-2-yl)piperidin-1-yl]-1-ethyl-2-oxo-1,2-dihydroquinoline-3-carbonitrile] | 0.017 |
| CCn1c(=O)c(C#N)c(N2CCC(c3ccc(Cl)cc3)CC2)c2ccccc21 [Example 333, 4-[4-(4-chlorophenyl)piperidin-1-yl]-1-ethyl-2-oxo-1,2-dihydroquinoline-3-carbonitrile] | 0.172 |
| Cn1c(=O)c(C#N)c(N2CCC(c3nc4cc(N5CCCC5=O)ccc4o3)CC2)c2ccccc21 [Example 334, 1-methyl-2-oxo-4-{4-[5-(2-oxopyrrolidin-1-yl)-1,3-benzoxazol-2-yl]piperidin-1-yl}-1,2-dihydroquinoline-3-carbonitrile] | 0.1 |
